Results on four molecules are retold here after patent publication US8709434B2, “Compositions for inhibiting NADPH oxidase activity” (PCB Associates, Inc., priority 2006, dated 2014).

The conditions of data set [1]: oral, mice and rats, dose range 50-300 mg/kg/day; cited from earlier work.
The conditions of data set [2]: feeding to cholesterol-fed hamsters; cited from earlier work.
For data set [3] the following is noted: mice, oral pre-treatment; cited from earlier work.
Data set [4] concerns NADPH oxidase. The data set is described as follows: NADPH-induced superoxide production by cellular NADPH oxidase, lucigenin chemiluminescence, human aortic endothelial cells. It is filed as cell-based. The conditions noted are these: for inhibition of NADPH oxidase superoxide production: 300 nM to 20 μM for 1 h. How it is done:
Human cell cultures derived from aortic endothelium were incubated with NADPH to induce superoxide production by cellular NADPH oxidase. Superoxide production was quantified by lucigenin chemiluminescence. Lucigenin is a specific detector of superoxide. […] Phycocyanobilin (PCB, FIG. 1A) or biliverdin (BVD, FIG. 1B) were added to the NADPH-treated cell cultures in concentrations ranging from 300 nM to 20 μM. Biliverdin is another known inhibitor of NADPH oxidase.
(§1) Human aortic endothelial cells were purchased from Clonetics (East Rutherford, N.J.). The endothelial cell were cultured in endothelial cell basal medium (Clonetics) supplemented with hFGF-B, VEGF, IGF-1, ascorbic acid hEGF, hydrocortisone and 2% fetal calf serum. The cells from 2nd to 5th passages were used in the experiments. Cellular production of superoxide anion was determined by the lucigenin method. For the experiments, cells were detached with trypsin/EDTA and resuspended in modified HEPES buffer containing 140 mM NaCl, 5 mM KCl, 0.8 mM MgCl2, 1.8 mM CaCl2, 1 mM Na2HPO4, 25 mM HEPES, and 1% glucose (pH7.2), and incubated with or without various concentrations of phycocyanobilin (PCB) or biliverdin (BVD) from 300 nM to 20 μM for 1 h. Immediately before recording, NADPH (100 μM) and dark-adapted lucigenin (5 μM) were added to cell suspension. Light emission was recorded every minute for 20 min and was expressed as mean arbitrary light unit/min. Experiments were performed in triplicate. In experiments with inhibition of NAD(P)H oxidase, diphenylene iodonuim cloride (DPI, 10^−5 M), an inhibitor of NAD(P)H oxidase, was added 10 min before NADPH addition and recording of chemiluminescence. This is the first experiment to see the effect of purified phycocyanobilin on NADPH oxidase activity using human aortic endothelial cells.

Data set [5] relates to NADPH oxidase. The data set is described as follows: NADPH-induced superoxide production by cellular NADPH oxidase, lucigenin chemiluminescence, human aortic smooth muscle cells. Type of data set: cell-based. The conditions noted are these: for inhibition of NADPH oxidase superoxide production: 300 nM to 20 μM for 1 h. How it is done: Human cell cultures derived from aortic smooth muscle were incubated with NADPH to induce superoxide production by cellular NADPH oxidase. Superoxide production was quantified by lucigenin chemiluminescence. Lucigenin is a specific detector of superoxide. […] Phycocyanobilin (PCB, FIG. 2A) or biliverdin (BVD, FIG. 2B) were added to the NADPH-treated cell cultures in concentrations ranging from 300 nM to 20 μM. Biliverdin is another known inhibitor of NADPH oxidase.
as §1, with “aortic smooth muscle” for “aortic endothelial”, “The smooth muscle cells” for “The endothelial cell”, “in a Smooth Muscle Cell Growth Medium” for “in endothelial cell basal medium”, “(Clonetics) containing 5%” for “(Clonetics) supplemented with hFGF-B, VEGF, IGF-1, ascorbic acid hEGF, hydrocortisone and 2%”

In data set [6] the test system is NADPH oxidase. The data set is described as follows: NADPH-induced superoxide production by cellular NADPH oxidase, lucigenin chemiluminescence, human renal mesangial cells. It is filed as cell-based. The conditions noted are these: for inhibition of NADPH oxidase superoxide production: 300 nM to 20 μM for 1 h. How it is done:
Human cell cultures derived from renal mesangial tissue were incubated with NADPH to induce superoxide production by cellular NADPH oxidase. Superoxide production was quantified by lucigenin chemiluminescence. Lucigenin is a specific detector of superoxide. […] Phycocyanobilin (PCB, FIG. 3A) or biliverdin (BVD, FIG. 3B) were added to the NADPH-treated cell cultures in concentrations ranging from 300 nM to 20 μM. Biliverdin is another known inhibitor of NADPH oxidase.
as §1, with “mesangial” for “aortic endothelial”, “[…] cells” for “endothelial cell”, “a Mesangial Cell Growth Medium” for “endothelial cell basal medium”, “containing 5%” for “supplemented with hFGF-B, VEGF, IGF-1, ascorbic acid hEGF, hydrocortisone and 2%”, “chemiluminescence.” for “chemiluminescence. This is the first experiment to see the effect of purified phycocyanobilin on NADPH oxidase activity using human aortic endothelial cells.”

The conditions of data set [7]: compared with bilirubin; cited from earlier work.
For data set [8] the following is noted: oral administration, compared with bilirubin; cited from earlier work.
For data set [9] the following is noted: mice, concurrent administration; cited from earlier work.
For data set [10] the following is noted: rats; cited from earlier work.
[11] abbreviates: DPI 10^−5 M added 10 min before NADPH (100 μM).

Consider phycocyanin, for which the anti-inflammatory effects entry in [1] is “dose-dependent anti-inflammatory effects”. The “production of arterial fatty streaks” value in data set [2] is “inhibit the production of arterial fatty streaks quite markedly”. The “endotoxin-induced shock (severe hypotension and death)” value in data set [3] was “considerable ameliorated”.
As for `C=CC1=C(C)/C(=C/C2=NC(=C\c3[nH]c(/C=C4\NC(=O)C(C)=C4C=C)c(C)c3CCC(=O)O)/C(CCC(=O)O)=C2C)NC1=O` [biliverdin], the “inhibition of NADPH oxidase superoxide production” value with NADPH oxidase [4], in the data set on NADPH oxidase [5] and in the data set with NADPH oxidase [6] was “dose-dependent inhibition” each time. Further, the solubility entry in data set [7] is recorded as “far more soluble than bilirubin”. The bioavailability entry in [8] is listed as “greater bioavailability than bilirubin”. Moreover, in [9], the “colitis induced with oral dextran sodium sulfate” value is recorded as “substantially ameliorated”. In data set [10], the “ischemia-reperfusion damage of transplanted organs” value is “ameliorates the ischemia-reperfusion damage”. The “rejection of cardiac or renal allografts” value in data set [10] is “helps to prevent the rejection”.
In the case of phycocyanobilin, the “inhibition of NADPH oxidase superoxide production” value with NADPH oxidase [4], in the data set with NADPH oxidase [5] and in the data set on NADPH oxidase [6] was “dose-dependent inhibition” throughout. In addition, the “inhibitory effect on NADPH oxidase activity compared with DPI” value is “equivalent to that of DPI” in the data set with NADPH oxidase [4] (20 μM); “equivalent to that of DPI” in the data set on NADPH oxidase [5] (20 μM); “less than that of DPI, but was statistically significant” in the data set with NADPH oxidase [6] (20 μM).
As to `c1ccc2c(c1)[I+]c1ccccc1-2` [Diphenyleneiodonium, diphenylene iodonuim cloride], the “inhibition of the excess superoxide production induced by added NADPH” value in the data set with NADPH oxidase [4] (setting [11]), in the data set with NADPH oxidase [5] (setting [11]) and in the data set on NADPH oxidase [6] (setting [11]) was “completely inhibit” in each case.
